Holding throughout (assay type): cell-based
Test [1] relates to NCI-H460 human lung cancer cell line. Nature of the test: MTS cell viability assay (NCI-60 methodology), GI50/LC50, NCI-H460. Particulars: 48 h, NCI-H460 cells, 2 days incubation with compound. A digest of the protocol:
(§1)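 Cells were plated 24 h before treatment, and a time-zero plate was read by MTS. Five 2-fold dilutions plus DMSO were then added for 48 h, and viability was measured by MTS. GI50 is from [(Ti−Tz)/(C−Tz)]×100=50 and LC50 from [(Ti−Tz)/Tz]×100=−50.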
(In general: Tetrazolium dyes change colour on reduction, which living cells bring about.)

Test [2] concerns Hep3B hepatocellular carcinoma cell line. Nature of the test: MTS cell viability assay (NCI-60 methodology), GI50/LC50, Hep3B. Particulars: Homo sapiens, 48 h, Hep3B cells, 2 days incubation with compound. A digest of the protocol:
as §1

Test [3] has as its system hepatocellular carcinoma cell line Hep3B. Kind of test: Growth inhibition of Hep3B cells, 48 hr treatment, Hoechst 33342 nucleus count (GE InCell 2200). Particulars: Homo sapiens. A digest of the protocol: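 Compound exposure lasted 48 hr at 37° C, 5% CO2. Surviving nuclei were counted after Hoechst 33342 staining, and survival was expressed as the treated/non-treated cell number ratio, including the ratio at 10 μM compound.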

Test [4] deals with SW480 colon adenocarcinoma cell line. Kind of test: MTS cell viability assay (NCI-60 methodology), GI50/LC50, SW480. Particulars: Homo sapiens, 48 h, SW480 cells, 2 days incubation with compound. A digest of the protocol:
as §1

Setting [5] is: Table 1, ratio of number of tumor cells treated with 10 μM compound to non-treated cells.
[6] abbreviates: Table 6, ratio of number of tumor cells treated with 10 μM compound to non-treated cells.
[7] abbreviates: Table 5, ratio of number of tumor cells treated with 10 μM compound to non-treated cells.

The term GI50 denotes the concentration at which growth is held to half of that of the control. One may read the LC50 as the concentration that kills 50% of the test population. The term viability denotes the share of living cells, or the viability signal relative to a control.

In the case of `CCOCOc1cc(OCC)ccc1-c1nnc(NC(=O)Cc2ccc3nc(N)sc3c2)s1` [Compound 1-26, 2-(2-aminobenzo[d]thiazol-6-yl)-N-(5-(4-ethoxy-2-(ethoxymethoxy)phenyl)-1,3,4-thiadiazol-2-yl)acetamide], in test [1], the GI50 was determined as 200 nM and the LC50 (concentration giving 50% net cell loss versus time zero, NCI-60 definition) was 590 nM. Also, in test [2], the GI50 is 160 nM and the LC50 amounted to 490 nM. Also, the viability at 10 µM in test [3] (setting [5]) turned out to be 59%. Moreover, in test [4], the GI50 is 210 nM and the LC50 (NCI-60 lethal concentration, 50% net cell loss vs time zero) worked out at 630 nM.

As for `CCOc1ccc(-c2nnc(NC(=O)Cc3ccc4nc(N)sc4c3)s2)c(OCC)c1` [Compound 1-18, 2-(2-aminobenzo[d]thiazol-6-yl)-N-(5-(2,4-diethoxyphenyl)-1,3,4-thiadiazol-2-yl)acetamide], in test [1], the GI50 came out at 200 nM and the LC50 (concentration giving 50% net cell loss versus time zero, NCI-60 definition) stood at 600 nM. Besides, in test [2], the GI50 was 160 nM and the 50% lethal concentration (LC50) came to 480 nM. Moreover, the viability at 10 µM in test [3] (setting [5]) is 70%. For the same molecule, in test [4], the GI50 turned out to be 190 nM and the LC50 (NCI-60 lethal concentration, 50% net cell loss vs time zero) was 580 nM.

As to `CC(C)(C)c1ccc(-c2nc(NC(=O)c3ccc([N+](=O)[O-])s3)sc2-c2ccc(Br)cc2)cc1` [Compound 6-53, N-(5-(4-bromophenyl)-4-(4-(tert-butyl)phenyl)thiazol-2-yl)-5-nitrothiophene-2-carboxamide], in test [1], the GI50 is 710 nM and the LC50 (concentration giving 50% net cell loss versus time zero, NCI-60 definition) came out at 1370 nM. Moreover, in test [2], the GI50 was 540 nM and the LC50 was 620 nM. Moreover, the viability at 10 µM in test [3] (setting [6]) amounted to 24%. Besides, in test [4], the GI50 turned out to be 620 nM and the LC50 (NCI-60 lethal concentration, 50% net cell loss vs time zero) is 990 nM.

For the molecule `CC(C)(C)c1ccc(-c2nc(NC(=O)c3ccc([N+](=O)[O-])s3)sc2-c2ccccc2)cc1` [Compound 6-21, N-(4-(4-(tert-butyl)phenyl)-5-phenylthiazol-2-yl)-5-nitrothiophene-2-carboxamide], in test [1], the GI50 came to 810 nM and the LC50 (concentration giving 50% net cell loss versus time zero, NCI-60 definition) was 1470 nM. Moreover, in test [2], the 50% growth inhibitory concentration (GI50) was determined as 670 nM and the LC50 came to 1350 nM. For the same molecule, the viability at 10 µM in test [3] (setting [6]) amounted to 29%. In test [4], the GI50 was 490 nM and the LC50 (NCI-60 lethal concentration, 50% net cell loss vs time zero) is 1470 nM.

Regarding `O=C(Nc1nc(-c2ccc(Br)cc2)c(Oc2ccc(C(F)(F)F)cc2)s1)c1ccc([N+](=O)[O-])s1` [Compound 5-7, N-(4-(4-bromophenyl)-5-(4-(trifluoromethyl)phenoxy)thiazol-2-yl)-5-nitrothiophene-2-carboxamide], in test [1], the GI50 turned out to be 850 nM and the LC50 (concentration giving 50% net cell loss versus time zero, NCI-60 definition) came out at 1850 nM. Besides, in test [2], the concentration for 50% growth inhibition (GI50) worked out at 630 nM and the LC50 was 1230 nM. In addition, the viability at 10 µM in test [3] (setting [7]) is 31%. Moreover, in test [4], the GI50 stood at 320 nM and the LC50 (NCI-60 lethal concentration, 50% net cell loss vs time zero) came to 2800 nM.

For `Cc1ccc(-c2nc(NC(=O)c3ccc([N+](=O)[O-])s3)sc2-c2cc(C(F)(F)F)cc(C(F)(F)F)c2)cc1` [Compound 6-5, N-(5-(3,5-bis(trifluoromethyl)phenyl)-4-(p-tolyl)thiazol-2-yl)-5-nitrothiophene-2-carboxamide], in test [1], the GI50 amounted to 1120 nM and the LC50 (concentration giving 50% net cell loss versus time zero, NCI-60 definition) was determined as 1630 nM. Further, in test [2], the GI50 stood at 950 nM and the LC50 is 1080 nM. The viability at 10 µM in test [3] (setting [6]) amounted to 46%. In addition, in test [4], the GI50 was 1200 nM and the LC50 (NCI-60 lethal concentration, 50% net cell loss vs time zero) turned out to be 1410 nM.

In the case of `CCCCOc1ccc(-c2nc(NC(=O)c3ccc([N+](=O)[O-])s3)sc2Oc2ccccc2)cc1` [Compound 5-56, N-(4-(4-butoxyphenyl)-5-phenoxythiazol-2-yl)-5-nitrothiophene-2-carboxamide], in test [1], the GI50 came out at 700 nM and the LC50 (concentration giving 50% net cell loss versus time zero, NCI-60 definition) worked out at 1550 nM. Besides, in test [2], the GI50 stood at 550 nM and the LC50 is 2310 nM. Moreover, the viability at 10 µM in test [3] (setting [7]) was 40%. Further, in test [4], the 50% growth inhibitory concentration (GI50) was determined as 1540 nM and the LC50 (NCI-60 lethal concentration, 50% net cell loss vs time zero) was determined as 9320 nM.

These data come from patent US11174253B2, “Compound and pharmaceutical composition containing the same” (ALPHALA CO., LTD., priority 2017, dated 2021).
